Measurements as given in patent US9572760B2, “Uses of compounds and mixtures from Antrodia cinnamomea mycelia” (Simpson Biotech Co., Ltd., priority 2013, dated 2017).

Columns and labels:
[1] = test system: Dermal fibroblast, CG1639 cells; assay: Profibrogenic gene expression in dermal fibroblast cell line (qRT-PCR); assay type: cell-based; details: two concentrations, 72 hrs
Description: (§1) The dermal fibroblast cell line CG1639 was obtained from the BCRC (Bioresource Collection and Research Center) and cultured in Dulbecco's modified Eagle media (DMEM, Gibco by Invitrogen) with 1% antibiotic antimycotic (Gibco by Invitrogen) and 15% fetal bovine serum (Gibco by Invitrogen). The fetal rat skin keratinocyte, FRSK cell line was obtained from the Japan HSRRB (Health Science Research Resources Bank) and cultured in Eagle's minimal essential media (MEM, Gibco by Invitrogen) supplemented with 10% fetal bovine serum (FBS) (Gibco by Invitrogen) and 1% antibiotic antimycotic (Gibco by Invitrogen). B16F10 cells, a murine melanoma cell line, were purchased from American Type Culture Collection (ATCC, Rockville, Md., USA) and was cultured in Eagle's Minimum Essential Medium (MEM; Sigma, St. Louis, Mo.) supplemented with 10% fetal bovine serum (FBS; HyClone Lab. Inc., Logan, Utah), 0.02% antibiotic-antimycotic liquid (penicillin, 10 000 U mL^−1; streptomycin, 10 000 μg mL^−1 and amphotericin B, 25 μg mL^−1; Invitrogen, Carlsbad, Calif.).
Reverse transcription reaction was performed using a commercially available set of High Capacity RNA-to-cDNA Kit (Applied Biosystems, USA). cDNA was prepared from 2 μg of total RNA per 20 μl reaction, according to the manufacturer's instructions—37° C. for 60 minutes, 95° C. for 5 minutes, and hold at 4° C. The resulting cDNA was to a final concentration of 100 ng/μl and constituted a matrix in further experiments.
Amplification and detection the gene expression by real-time PCR were performed using StepOne plus Real-time PCR System (Applied Biosystems, USA). Samples were assayed in a 10 μl reaction mixture containing 2 μl of template DNA, 5 μl of 2× TaqMan PCR Master Mix (Applied Biosystems, Life Technologies, Foster City, Calif., USA), 0.5 μl of 20× assay mix containing probe, forward and reverse primer (Applied Biosystems, Life Technologies, Foster City, Calif., USA), whereby qPCR targets with the following information were used: (a) α-SMA, Assay ID Rn01759928_g1, (b) TIMP-1, Assay ID Rn00587558_m1, (c) TGF-β1, Assay ID Rn00572010_m1, (d) Collagen I, Assay ID Rn 01463838_m1, (e) GAPDH, Assay ID Rn1462662_g1. To control variation in mRNA concentration, all results were normalized to the housekeeping gene, GAPDH. Relative quantitation was performed using the comparative ΔΔCt method according to the manufacturer's instructions. The cycling conditions used were as follows: 50° C. for 2 min, 95° C. for 10 min followed by 40 cycles of 95° C. for 15 s and 60° C. for 1 min each.
Dermal fibroblast, CG1639 cells, were exposed to Hepasim compounds by two different concentrations for 72 hrs. Then, RNA was extracted and subsequent real-time quantitative PCR Collagen-1, TGF-β1, α-SMA and TIMP-1 mRNA were measured.

cirrhotic animals = assay: Liver fibrosis: hydroxyproline content in the liver and Sirius red staining, DEN cirrhotic animal model; details: compound B 7 mg/kg, compound C 14 mg/kg, ACM 320 mg/kg, vs control group
tyrosinase = target: T1, tyrosinase (Mus musculus, UniProt P11344); assay: Cellular tyrosinase activity assay (L-DOPA oxidation) in B16F10 cells exposed to UV; assay type: cell-based, murine; details: UV alone 52.55±4.36% increase over non-UV control (3.0±0.5 U/mg protein)
T1 construct: endogenous in cells; host or cells: B16F10 murine melanoma cells (ATCC), total cell lysate
T1 sequence (P11344 19-533): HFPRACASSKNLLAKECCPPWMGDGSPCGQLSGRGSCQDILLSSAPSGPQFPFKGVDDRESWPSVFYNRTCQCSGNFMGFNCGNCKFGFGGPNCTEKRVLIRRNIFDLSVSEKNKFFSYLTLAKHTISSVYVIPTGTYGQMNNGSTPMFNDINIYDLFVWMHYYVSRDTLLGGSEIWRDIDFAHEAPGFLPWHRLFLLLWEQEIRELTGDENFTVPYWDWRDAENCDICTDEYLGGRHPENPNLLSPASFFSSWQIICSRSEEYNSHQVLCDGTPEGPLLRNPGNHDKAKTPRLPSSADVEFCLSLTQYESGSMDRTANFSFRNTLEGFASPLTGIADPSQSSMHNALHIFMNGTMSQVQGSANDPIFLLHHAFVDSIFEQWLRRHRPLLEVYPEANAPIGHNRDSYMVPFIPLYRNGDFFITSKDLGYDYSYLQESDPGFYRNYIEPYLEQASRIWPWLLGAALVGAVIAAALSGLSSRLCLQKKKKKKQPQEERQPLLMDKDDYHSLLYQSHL
Description: as §1
To investigate the induction of melanogenesis and the oxidative stress by direct UV irradiation, melanoma cells and keratocytes were irradiated with 8 J cm^−2 of UVA (FL15BLB, 352 nm, 15 W; Toshiba, Tokyo, Japan) and 10 mJ cm^−2 of UVB (G15T8E, 306 nm, 15 W; Sankyo Denki, Tokyo, Japan) in a HANKS' balanced salt solution (Sigma). The UV intensity was measured by using a Model UVX Digital Radiometer (UVP Inc., Upland, Calif.).
B16F10 and FRSK cells were exposed to Hepasim compounds A-D by two different concentrations (3 or 10 μM) for 72 hrs prior to UVA irradiation. DMEM was replaced with phosphate buffered saline (PBS) to avoid generation of medium-derived toxic photoproducts prior to UV irradiation. Cells were collected 24 hrs after UVA irradiation and assayed. For preparation of cell lysate, the harvested cells were pelleted by centrifugation and lysed in lysis buffer containing 50 mM Tris-HCl, 10 mM ethylene diaminetetraacetic acid (EDTA), 1% (v/v) Tri-ton X-100, phenylmethylsulfonyl fluoride (PMSF) (100 mg/ml) and pepstatin A (1 mg/ml) in DMSO and leupeptin (1 mg/ml) in H2O, pH 6.8. The cells were centrifuged at 10,000 rpm for 10 min and the total cell lysate was collected and stored at −80° C.
The rate of L-DOPA oxidation was measured to assess cellular tyrosinase activity in B16F10 cells exposed to UV. The assay was performed as below described, 20 mM L-DOPA used as the substrates was added to each lysate in a 96-well plate and absorbance of dopachrome formation was measured spectrophotometrically at 475 nm every 10 min for 1 h at 37° C. by a spectrophotometer. The tyrosinase activity was calculated by comparison to a standard curve using tyrosinase (2034 U/mg) and was expressed as unit/mg protein. The data are expressed as a percentage of the tyrosinase activity (unit/mg protein) of non-irradiated and untreated control cells (100%).

| tyrosinase activity in UV-irradiated B16F10 cells (tyrosinase; 3 μM) [%] | tyrosinase activity in UV-irradiated B16F10 cells (tyrosinase; 10 μM) [%] | SMILES | All-4 profibrogenic gene expression (Collagen-1, TGF-β1, α-SMA, TIMP-1) [1] | dose dependence of profibrogenic gene down-regulation [1] | liver cirrhosis (hydroxyproline levels and Sirius red-positive areas) (cirrhotic animals) |
| --- | --- | --- | --- | --- | --- |
| 51.65±4.6 | 42.32±6.7 | CC(C)=CCOc1ccc(C2=C(CC(C)C)C(=O)NC2=O)cc1 [Compound B, 3-isobutyl-4-[4-(3-methyl-2-butenyloxy)phenyl]-1H-pyrrol-2,5-dione] | down-regulated significantly | dose-dependent effect | markedly ameliorated |
| 48.55±3.7 | 40.55±3.9 | CC(C)=CCOc1ccc(C2=C(CC(C)C)C(=O)N(O)C2=O)cc1 [Compound C, 3-isobutyl-4-[4-(3-methyl-2-butenyloxy)phenyl]-1H-pyrrol-1-ol-2,5-dione] | down-regulated significantly | dose-dependent effect | markedly ameliorated |
